ChEMBL document CHEMBL3046138, “5-Aryl-1,3,4-oxadiazole-2-thiols as a New Series of trans-Cinnamate 4-Hydroxylase Inhibitors” (J Pestic Sci, 2004)

target: T1, Trans-cinnamate 4-monooxygenase (Populus kitakamiensis, UniProt Q43054); assay: Inhibition of Populus sieboldii x Populus grandidentata trans-cinnamate 4-hydroxylase expressed in Saccharomyces cerevisiae BJ2168 assessed as inhibition of hydroxylation of cinnamic acid after 60 min
T1 sequence (Q43054 whole entry): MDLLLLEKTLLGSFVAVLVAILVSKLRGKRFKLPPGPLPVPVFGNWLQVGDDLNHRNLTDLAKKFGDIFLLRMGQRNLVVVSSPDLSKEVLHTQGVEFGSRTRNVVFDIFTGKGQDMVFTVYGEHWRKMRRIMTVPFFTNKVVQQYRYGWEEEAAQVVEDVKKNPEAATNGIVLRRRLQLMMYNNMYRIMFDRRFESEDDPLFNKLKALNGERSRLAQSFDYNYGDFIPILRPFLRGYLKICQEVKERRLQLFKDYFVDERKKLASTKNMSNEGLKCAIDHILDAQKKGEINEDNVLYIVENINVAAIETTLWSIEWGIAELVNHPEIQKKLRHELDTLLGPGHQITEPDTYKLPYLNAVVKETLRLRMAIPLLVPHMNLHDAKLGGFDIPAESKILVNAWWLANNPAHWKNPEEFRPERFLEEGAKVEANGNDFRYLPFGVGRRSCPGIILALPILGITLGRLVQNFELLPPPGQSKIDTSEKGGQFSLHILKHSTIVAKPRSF

SMILES	IC50 [µM]
Cc1ccccc1-c1nnc(S)o1	0.5
Sc1nnc(-c2ccc3ccccc3c2)o1	> 100
Fc1ccc(-c2nnc(S)o2)cc1	3.3
Sc1nnc(-c2cccc(Cl)c2)o1	0.21
FC(F)(F)c1cccc(-c2nnc(S)o2)c1	> 100
Sc1nnc(-c2ccccc2Cl)o1	0.68
Sc1nnc(-c2cc(Cl)ccc2Cl)o1	2
Sc1nnc(-c2ccncc2)o1	15
Sc1nnc(/C=C/c2ccccc2)o1	> 100
Fc1ccccc1-c1nnc(S)o1	0.19
Sc1nnc(-c2cccc(Br)c2)o1	0.42
O=C(O)c1ccc2c(c1)OCO2 [PIPERONYLIC ACID]	> 100
Sc1nnc(-c2ccco2)o1	5.9
Cc1cccc(-c2nnc(S)o2)c1	1.1
S=c1[nH]nc(-c2ccc(Cl)cc2)o1	23
S=c1[nH]nc(-c2ccccc2)o1	0.8
Cc1ccc(-c2nnc(S)o2)cc1	50
Sc1nnc(-c2cccs2)o1	6.2
S=c1[nH]nc(C2CCCCC2)o1	> 100
Fc1cccc(-c2nnc(S)o2)c1	0.13
O=C(O)c1c(O)ccc2ccccc12	0.88
CSc1nnc(-c2ccccc2)o1	> 100
c1ccc(-c2nnco2)cc1	> 100
Sc1nnc(-c2ccccc2Br)o1	0.98
Sc1nnc(-c2cccnc2)o1	0.65
Sc1nnc(-c2ccccn2)o1	0.58
O=c1[nH]nc(-c2ccccc2)o1	6.7
COc1cccc(-c2nnc(S)o2)c1	6.1
Sc1nnc(-c2cc(Cl)cc(Cl)c2)o1	> 100
S=c1[nH]nc(-c2cccc3ccccc23)o1	> 100

target: T2, Trans-cinnamate 4-monooxygenase (Populus kitakamiensis) (UniProt Q43054); assay: Inhibition of Populus sieboldii x Populus grandidentata CYP73A1 at 100 uM
T2 sequence (whole entry): T1 sequence (Q43054 whole entry)

SMILES	inhibition [%]
O=C(O)c1ccc2c(c1)OCO2 [PIPERONYLIC ACID]	58

target: T3, Trans-cinnamate 4-monooxygenase (Helianthus tuberosus, UniProt Q04468); assay: Inhibition of Helianthus tuberosus CYP73A1
T3 sequence (Q04468 whole entry): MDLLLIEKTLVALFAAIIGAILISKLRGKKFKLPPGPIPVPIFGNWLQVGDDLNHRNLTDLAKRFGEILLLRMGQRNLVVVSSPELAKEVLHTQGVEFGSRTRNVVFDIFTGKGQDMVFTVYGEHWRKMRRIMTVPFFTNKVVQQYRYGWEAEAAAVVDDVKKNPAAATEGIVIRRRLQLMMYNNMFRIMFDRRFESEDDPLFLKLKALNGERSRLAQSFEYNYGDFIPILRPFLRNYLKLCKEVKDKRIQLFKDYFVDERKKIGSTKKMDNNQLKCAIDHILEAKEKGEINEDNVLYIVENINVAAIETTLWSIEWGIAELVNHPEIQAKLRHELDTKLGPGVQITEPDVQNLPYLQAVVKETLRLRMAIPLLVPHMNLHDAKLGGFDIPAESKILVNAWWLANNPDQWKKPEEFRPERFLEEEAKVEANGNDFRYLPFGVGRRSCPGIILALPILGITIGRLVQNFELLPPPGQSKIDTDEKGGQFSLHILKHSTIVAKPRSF

SMILES	IC50 [µM]
O=C(O)c1c(O)ccc2ccccc12	0.89
